# US11198710B2, “Transgenic plant having herbicide resistance” (priority 2016, dated 2021)
# Columns and labels:
# wild-type rice = assay: Pyroxasulfone resistance test, wild-type rice, gellan gum medium, plant height; type: in vivo; conditions: Oryza sativa, shoot growth, 4 to 5 days, Probit method, read-out: I50
# Protocol: Hoagland's mix and 3 g of gellan gum were suspended in 1 liter of distilled water and thoroughly dissolved therein by heating in a microwave. A fraction of the resultant (15 ml) was injected into a tubular bottle before it was cooled (30 ml was injected into the plate). The herbicide was simultaneously added at the time of injection of the gellan gum medium into the tubular bottle or plate, followed by thorough mixing. Rice hulls were soaked in a 50-fold diluted sodium hypochlorite solution (antiformin) (Wako) for approximately 20 minutes and then thoroughly washed with water. Sterilized seeds were soaked in distilled water and allowed to stand at 27° C. for germination (for approximately 2 days). Germinating seeds were softly planted in the gellan gum medium (plate) containing 0.25 μM BS. […] Thereafter, rice seeds that were determined to have BS resistance with the use of root elongation as the indicator were transferred to gellan gum media containing pyroxasulfone (tubal bottles) at the final concentrations of 10^−8, 10^−7, 10^−6, and 10^−5M, respectively. […] These samples were grown at 27° C. under fluorescent light illumination (14 hours of a light period and 10 hours of a dark period) for 4 to 5 days, and the plant heights were then measured. […]
# TaQ8GTB9 = assay: Pyroxasulfone metabolizing activity based on fatty acid content in cultured rice cells; type: cell-based, wheat; conditions: cultured rice cells with TaQ8GTB9 gene; 10^−7M or 10^−6M pyroxasulfone, liquid culture 14 to 17 days
# Protocol: The transgenic cultured rice cells thus prepared were used for liquid culture in the presence of pyroxasulfone. Pyroxasulfone was added to the liquid medium as an acetone solution. The final acetone concentration was 0.1%. When liquid culture was carried out, cultured rice cells transformed with KLB-279 (a plasmid comprising Act1p (rice actin 1 promoter)::sGFP::NOSt incorporated into the MCS of PalSelect R-4) were designated as the control samples. Liquid culture was carried out as described below. […]
# Fatty acid was extracted using undecenoic acid (C11:1) as an internal standard. As analytical standards, Supelco FAME mix containing C14:0, C16:0, C16:1, C18:0, C18:1, C18:2, C18:3, C20:0, C22:0, C22:1, and C24:0 and other fatty acid methyl esters (C11:1, C15:0, C20:1, and C26:0) were used, and calibration curves thereof were prepared, followed by quantification. […] Quantitative and qualitative analyses were carried out as methyl esters, although fatty acid methyl esters were converted into fatty acids at the time of quantitative analysis. […]
# [1] = system: transgenic rapeseed plants comprising the TaQ8GTC0 gene; assay: Rapeseed sensitivity test 1 (post-sowing/pre-emergence soil treatment), transgenic; type: in vivo, Brassica napus
# Protocol: Wild-type rapeseed plants (variety: Westar) and transgenic rapeseed plants comprising the wheat GST gene introduced therein were subjected to Rapeseed sensitivity test 1 in plastic pots (length: 8 cm; width: 8 cm; height: 6 cm). The test was carried out in Fujino soil (sandy loam soil), and 4 seeds of wild-type rapeseed and 8 seeds of transgenic rapeseed were sown in each pot (sowing depth: 1 cm). Water dispersible granules containing 50% pyroxasulfone were applied at 5 different doses of 1, 4, 16, 63, and 250 g a.i./ha (n=3). Immediately after pyroxasulfone treatment, about 1 mm of rain was fallen with the use of artificial rainfall device, and water was supplied from the bottom of the pots. Thereafter, water was supplied from the bottom of the pot when the soil surface was dried in the pot, according to need.
# The difference in the sensitivity of rapeseed to pyroxasulfone applied pre-emergence was examined (temperature: 22° C., fluorescent light), and whether or not the transgenic rapeseed plant comprising wheat GST had pyroxasulfone resistance was evaluated in terms of the plant height, the herbicidal symptoms, and the cotyledon growth. Specifically, heights of the plants were measured 2 weeks after seeds sowing of rapeseed and pyroxasulfone application, and the inhibition was assessed by comparison to control plants grown in the absence of pyroxauslfone (n=4 to 12). In FIGS. 37 to 39, “TaGST” stands for a transgenic rapeseed plant comprising the TaQ8GTC0 gene. Values in the table in FIG. 38 are expressed as the mean±standard deviation (n=4 to 12).
compound,measurement,setting,value
"Cn1nc(C(F)(F)F)c(CS(=O)(=O)C2=NOC(C)(C)C2)c1OC(F)F [Pyroxasulfone, 3-[5-(difluoromethoxy)-1-methyl-3-(trifluoromethyl)pyrazol-4-ylmethylsulfonyl]-4,5-dihydro-5,5-dimethyl-1,2-oxazole]",IC50,wild-type rice,39 nM
same,pyroxasulfone metabolizing activity (C15:0 and VLCFA contents),TaQ8GTB9,no pyroxasulfone metabolizing activity
same,cotyledon growth,[1]; 250 g a.i./ha,grew to a certain extent
same,inhibition at 16 g/ha,"[1]; Brassica napus, 336 h, 16 g a.i./ha, 2 weeks after sowing and application, 22° C., read-out: shoot growth inhibition (plant height)",48.2%
same,herbicidal symptoms (cotyledons dark green),"[1]; pre-emergence soil treatment, doses up to 250 g a.i./ha",not detected
